# Test results from patent US9808505B2, “Suppression of malignant mesothelioma by overexpression or stimulation of endothelial protein C receptors (EPCR)” (BOARD OF REGENTS, THE UNIVERSITY OF TEXAS SYSTEM, priority 2013, dated 2017).
# B1: FVIIa: Recombinant human FVIIa from Novo Nordisk; clotting factor that initiates coagulation upon binding to TF (protein)
# chain: ANAFLEELRPGSLERECKEEQCSFEEAREIFKDAERTKLFWISYSDGDQCASSPCQNGGSCKDQLQSYICFCLPAFEGRNCETHKDDQLICVNENGGCEQYCSDHTGTKRSCRCHEGYSLLADGVSCTPTVEYPCGKIPILEKRNASKPQGRIVGGKVCPKGECPWQVLLLVNGAQLCGGTLINTIWVVSAAHCFDKIKNWRNLIAVLGEHDLSEHDGDEQSRRVAQVIIPSTYVPGTTNHDIALLRLHQPVVLTDHVVPLCLPERTFSERTLAFVRFSLVSGWGQLLDRGATALELMVLNVPRLMTQDCLQQSRKVGDSPNITEYMFCAGYSDGSKDSCKGDSGGPHATHYRGTWYLTGIVSWGQGCATVGHFGVYTRVSQYIEWLQKLMRSEPRPGVLLRAPFP
# What was measured:
# Assay type in all cases: cell-based, human
# REN MPM cells [1] = experiment: Measurement of cytosolic Ca2+ release (Fluo-4 fluorescence microscopy); conditions: peptide 50 μM (FIG. 1E)
# Protocol: Fluorescence microscopy was used for measurement of cytosolic Ca^2+ release as described earlier (34). MPM cells were seeded in 8-well chambered cover slips (Nunc, Rochester, N.Y.) at a density of 10,000 cells/well. After 24 h, cells were washed and incubated with 4 μM Fluo-4/AM Ester (Molecular Probes, Inc, Eugene, Oreg.) for 1 h in buffer B in a humidified atmosphere of 37° C./5% CO2. The cells were then washed with buffer B, and a chambered cover slip was placed on the stage of an inverted microscope (Axio Observer Z1) encased in an incubation chamber that maintained 37° C./5% CO2. Live images of cell fluorescence were recorded by exciting the Fluo-4 probe with 488 nm light and monitoring 530 nm emission using Carl Zeiss LSM 510 Meta Confocal Laser Scanning system. After 15 sec of image acquisition, PAR1 agonist peptide […]; SEQ ID NO:10)) or PAR2 agonist peptide (SLIGRL; (SEQ ID NO:11)) was added to the cells at a final concentration of 50 μM and the recording was continued for an additional 165 sec. Results are represented as change in fluorescence intensity over time.
# REN MPM cells [2] = experiment: Cell proliferation assay (BrdU incorporation) in MPM cells; conditions: for difference in cell proliferation between REN and REN(+EPCR): in vitro, presence or absence of ligand, FVIIa 10 nM, APC 20 nM, thrombin 10 nM, 24 h; for cell proliferation of REN cells in response to ligand (in words): wild-type REN cells in vitro, 10 nM ligand in SFM, 24 h (FIG. 8)
# Protocol: Cell proliferation assay in MPM cells in the presence or absence of various ligands was performed using Apo-BrdU cell proliferation assay kit from Millipore (Temecula, Calif.) following the manufacturer's instructions. Briefly, MPM cells (7,500 cells/well) were seeded in 96-well plates in RPMI medium containing 10% FBS, and after 24 h the cells were washed once and maintained in serum-free medium (SFM). After 24 h, the cells were washed once with SFM and incubated with SFM or SFM containing FVIIa, APC, thrombin or serum (1%) for 24 h. Twenty μl of BrdU-labeling solution was added to each well 8 h prior to the completion of 24 h incubation with the test compound. The cells were fixed and processed for detection of BrdU incorporation by incubating the cells with an anti-BrdU antibody, followed by peroxidase-conjugated secondary antibody and then the substrate tetramethyl-benzidine with three washings in between each step. The color developed in the assay was measured as absorbance at 450 nm using the absorbance measured at 650 nm as a reference value in a microplate reader (Molecular Devices, Sunnyvale, Calif.).
# REN MPM cells [3] = experiment: Elaboration of proangiogenic factors on exposure to FVIIa; conditions: REN MPM cells in response to FVIIa
# Protocol: To assess whether TF promotes tumor growth in MPM through elaboration of proangiogenic factors by direct signaling (as observed in breast cancer cells (38, 39)), studies were conducted here to examine whether exposure of REN MPM cells to FVIIa increased production of proangiogenic factors in these cells. […] Thus, it seems unlikely that TF-FVIIa-PAR1-mediated cell signaling promotes MPM tumor growth through elaboration of proangiogenic factors as previously speculated for promotion of tumor growth in breast cancer (21).
Molecule,intracellular Ca2+ release (REN MPM cells [1]),thrombin-induced cell proliferation in PAR1 knock-down cells (REN MPM cells [2]; REN cells with PAR1 knock-down (REN-P1KD)),difference in cell proliferation between REN and REN(+EPCR) (REN MPM cells [2]),cell proliferation of REN cells in response to ligand (in words) (REN MPM cells [2]),"elaboration of proangiogenic factors, including IL-8, CCN1 and CCN2 (REN MPM cells [3])",FVIIa-induced increase in cell proliferation in TF knock-down cells (REN MPM cells [2]; REN cells with TF knock-down (REN-TFKD)),"increase in rate of cell proliferation (REN MPM cells [2]; naïve REN MPM cells, addition of FVIIa)"
TFLLRNPNDK [PAR1 agonist peptide],induced intracellular Ca^2+ release,–,–,–,–,–,–
SLIGRL [PAR2 agonist peptide],not,–,–,–,–,–,–
thrombin,–,diminished,no measurable differences,modest increase,–,–,–
B1,–,–,no measurable differences,modestly but consistently,robust or reproducible elaboration,abrogated,about 70%
